Data from patent US4740499A, “Method of enhancing the bioactivity of atrial peptides” (Monsanto Company, priority 1986, dated 1988).

Assays:
[1] = system: rabbit kidney brush border membranes (RBBM); assay: physchem; format: biochemical; conditions: 20 μg RBBM, 100 nM inhibitor, 60 min, 25° C.
Procedure: The kelatorphan was prepared according to the method described for compound 13 by Fournie-Saluski et al., J. Med. Chem. 28, 1158-1169 (1985). The following procedure was performed at 4° C. Rabbit kidneys were obtained fresh and were perfused with buffer A (containing 5 mM Tris, pH 7.5, 0.25 M sucrose, 3 mM MgCl2 and 1 mM EDTA) to remove the blood. (EDTA=ethylenediaminetetraacetic acid.) The kidneys were minced, homogenized in 5 volumes of ice-cold buffer A with a Brinkmann Polytron homogenizer and filtered through two layers of cheesecloth. The filtrate was centrifuged at 5,000×g for 20 min, the pellet was discarded and the supernatant was centrifuged at 15,000×g for 20 min. The supernatant was retained and then centrifuged at 100,000×g for 90 min. The pellet was resuspended in 50 mM Tris, pH 7.5, and the suspension was centrifuged at 100,000×g for 90 min. The washed pellet was resuspended in 50 mM Tris, pH 7.5, to give a final protein concentration of 4 mg/ml using the protein assay of Bradford, Anal. Biochem. 72, 248-254 (1976). The membrane preparation was assayed for aminopeptidase and alkaline phosphatase activities which are the marker enzymes for the kidney brush border. See Inui et al., Biochim. Biophys. Acta 647, 150-154 (1981). The final membrane preparation was enriched 8-fold in alkaline phosphatase activity, and 11-fold in aminopeptidase activity, compared to the homogenate. Renal brush border membranes (10-20 μg) were preincubated for 15 min at 25° C. in a solution containing the inhibitor and 50 mM Tris, pH 7.5. […] Incubations were for 60 min at 25° C. and were terminated by removing the membranes by filtration using Gelman GA-6 filters. The filtrates were immediately frozen on dry ice and were stable for 1 week when stored at -80° C. Samples containing the peptide degradation products were resolved by C18 reversed phase high pressure liquid chromatography (HPLC). The frozen samples were thawed immediately before injection onto a Vydac C18 column (4.6 mm I.D.×25 cm; 5 micron/300 Å) equilibrated with water containing 0.05% trifluoracetic acid (TFA). Peptide fragments and starting material were separated on a linear gradient of 0-35% acetonitrile also containing 0.05% TFA. Both the gradient and the flow rate (1 ml/min) were maintained by a Waters HPLC system consisting of two Model 510 pumps connected to an Automated Gradient Controller. Column effluent was monitored at 220 nm by a Waters Model 481 spectrophotometer, and the amount of atrial peptide material and peptide fragments were measured via a Hewlett-Packard Model […] integrator. […] Therefore, in those cases where the N-terminal serine was removed, the total amount of biologically active material remaining at the end of the incubation was taken as the % starting material remaining plus % des […] -AP-I or des […] -AP-III (as appropriate), as calculated from the peak areas of the individual peptides on HPLC.

[2] = Plasma AP-III levels (radioimmunoassay) in rats, second test: varied AP-III infusion rate, constant thiorphan dose; format: in vivo, rat; conditions: for Plasma AP-III concn.: thiorphan 3 mg/kg arterial after 30 min sample
Procedure: Plasma levels of atriopeptin III (AP-III) were tested in rats in which the AP-III was infused intravenously both with and without contemporaneous administration of thiorphan.
Male Sprague-Dawley rats, 240-310 g, were used for all tests. The rats were housed in the test facilities for at least 6 days before they were used.
Cannulas were made of PE-10 (polyethylene) tubing inserted and glued into a piece of PE-50 tubing. Rats were anesthetized with pentobarbital (50 mg/kg i.p.) and had cannulas inserted into the left femoral vein and artery. Both were inserted four cm into the vessels and tied securely. They were then tunnelled under the skin and brought out between the rat's shoulder blades and then cut so that only 1-2 cm was externalized. Cannulas were glued in place using Superglue and filled with saline containing 100 units heparin/ml. Rats were allowed to wake up and then housed individually with food and water ad libitum.
Two days after surgery, the rats were weighed and put into restraining cages that allowed limited movement. […] Blood was collected from the femoral artery and replaced with saline containing 10 units heparin/ml. In most tests, 0.3 ml blood was taken, except that when basal AP-III levels were measured 0.4 ml blood was withdrawn. Blood was immediately centrifuged in a microcentrifuge for one minute and plasma was frozen in plastic tubes placed on dry ice. Samples were kept in a -80° C. freezer until they were analyzed.
(§1) Thiorphan was dissolved in a minimal amount of 0.1 N NaOH to produce the sodium salt. The solution was immediately neutralized using 0.5 N HCl and diluted to a final concentration with 0.9% saline.
In the second test, the level of thiorphan was kept constant at 3 mg/kg and the rate of AP-III infusion was varied. AP-III was infused into the femoral vein for a total of 60 minutes at a rate of 150,450 and 900 ng/kg/min; another group of rats received only an infusion of dextrose/saline to determine if thiorphan affected the basal levels of AP-III. Blood was taken at 15 and 30 minutes after the start of the AP-III infusion to check for a steady state AP-III plasma concentration. After the 30 min sample, thiorphan (3 mg/kg) was injected arterially and additional blood samples were taken 15 and 30 min later (45 and 60 minutes after the start of the AP-III infusion).
Plasma AP-III levels were analyzed by radioimmunoassay using a second antibody to separate free and bound AP-III. The label was ^125 I-AP-III that was purified by HPLC after iodination. Conditions were set so that 35-40% of the total counts were precipitated. The incubation medium contained sodium phosphate, pH 7.4, 0.25% bovine serum albumin (BSA), 0.5% sodium azide and 3% PEG-8000 (polyethylene glycol). The primary antibody was from a guinea pig immunized against AP-III. The incubations were done overnight at 6° C. The next day, 2 ml of 0.125% BSA was added to each tube and then they were centrifuged for 45 min at 3000 rpm. They were decanted and the radioactivity was counted in a Micromedic gamma counter. The standard curve contained 10 to 600 pg AP-III/tube. Only the linear portion of the curve was used for quantification. Plasma samples were diluted so that the AP-III concentrations were in the range of the standard curve.

[3] = HPLC analysis of thiorphan after dissolution in NaOH and neutralisation; format: physicochemical; conditions: dissolved in 0.1 N NaOH, neutralized with 0.5 N HCl, diluted with 0.9% saline
Procedure: as §1

Structure (SMILES): O=C(O)CNC(=O)C(CS)Cc1ccccc1 (racemic) [thiorphan, N-(DL-2-benzyl-3-mercapto-propionyl)glycine]
- Peak area as % Initial AP: AP ([1]; (c) 40 μM AP-I): 27.3%
- Peak area as % Initial AP: AP + des Ser^1 -AP ([1]; (c) 40 μM AP-I): 87.9%
- Peak area as % Initial AP: des Ser^1 -AP ([1]; (c) 40 μM AP-I): 60.6%
- Peak area as % Initial AP: AP ([1]; (c) 40 μM AP-III): 38.1%
- Peak area as % Initial AP: AP + des Ser^1 -AP ([1]; (c) 40 μM AP-III): 86.1%
- Peak area as % Initial AP: des Ser^1 -AP ([1]; (c) 40 μM AP-III): 48.0%
- Peak area as % Initial AP: AP ([1]; (c) 40 μM SLRR(Met^8)AP-III): 86.5%
- Peak area as % Initial AP: AP + des Ser^1 -AP ([1]; (c) 40 μM SLRR(Met^8)AP-III): 86.5%
- Peak area as % Initial AP: des Ser^1 -AP ([1]; (c) 40 μM SLRR(Met^8)AP-III): 0%
- Plasma AP-III concn. ([2]; rat, AP-III 150 ng/kg/min i.v. infusion, 45 min): 2.6 ± 0.8 ng/mL
- Plasma AP-III concn. ([2]; rat, AP-III 150 ng/kg/min i.v. infusion, 60 min): 3.3 ± 1.7 ng/mL
- Plasma AP-III concn. ([2]; rat, AP-III 450 ng/kg/min i.v. infusion, 45 min): 11.2 ± 3.6 ng/mL
- Plasma AP-III concn. ([2]; rat, AP-III 450 ng/kg/min i.v. infusion, 60 min): 12.8 ± 5.8 ng/mL
- Plasma AP-III concn. ([2]; rat, AP-III 900 ng/kg/min i.v. infusion, 45 min): 29.8 ± 7.6 ng/mL
- Plasma AP-III concn. ([2]; rat, AP-III 900 ng/kg/min i.v. infusion, 60 min): 23.0 ± 6.0 ng/mL
- Plasma AP-III concn. ([2]; rat, no AP-III infusion (dextrose/saline only, basal AP-III), 45 min): 0.6 ± 0.3 ng/mL
- Plasma AP-III concn. ([2]; rat, no AP-III infusion (dextrose/saline only, basal AP-III), 60 min): 0.5 ± 0.2 ng/mL
- Increase of plasma AP-III levels after thiorphan administration ([2]; rat, thiorphan 3 mg/kg given 30 min after start of various AP-III infusion rates): 2-3 fold
- Basal levels of AP-III after inhibitor ([2]; rats receiving no exogenous peptide, thiorphan 3 mg/kg): did not increase
- Degradation due to method of dissolution (HPLC analysis) [3]: no apparent degradation
